This is an account of results in patent publication US20180064153A1, “Methods of Protecting Against Brain Injury” (priority 2016, published 2018).

Molecules are shown by their SMILES.

This experiment deals with rats exposed to a low-pressure blast wave. To be noted: 30 days supplementation, 33/49.

For the molecule `NCCC(=O)O` [BA, beta-alanine], the “prevalence of well-adapted animals” value was 67%.
